In PMC11237753, “Discovery of α-(1→6)-linked mannan structures resembling yeast N-glycan outer chains in Aspergillus fumigatus mycelium” (mSphere, 2024):

Experiments:
Mnn2 (AfMnn2) = biological target: T1, Mnn2 (AfMnn2) (Aspergillus fumigatus, UniProt B0YD06); test: reverse-phase HPLC of products; type: biochemical; conditions: acceptor 1.5 mM; 10 mM GDP-Man, 0.5 mM MnCl2, pH 6.8, 30 °C, 16 h
T1 construct: gene AFUB_093840; N-terminal 6xHis, transmembrane residues 1-30 removed (31-493), expressed in E. coli SHuffle T7 Express, about 53 kDa
T1 sequence (B0YD06 31-493): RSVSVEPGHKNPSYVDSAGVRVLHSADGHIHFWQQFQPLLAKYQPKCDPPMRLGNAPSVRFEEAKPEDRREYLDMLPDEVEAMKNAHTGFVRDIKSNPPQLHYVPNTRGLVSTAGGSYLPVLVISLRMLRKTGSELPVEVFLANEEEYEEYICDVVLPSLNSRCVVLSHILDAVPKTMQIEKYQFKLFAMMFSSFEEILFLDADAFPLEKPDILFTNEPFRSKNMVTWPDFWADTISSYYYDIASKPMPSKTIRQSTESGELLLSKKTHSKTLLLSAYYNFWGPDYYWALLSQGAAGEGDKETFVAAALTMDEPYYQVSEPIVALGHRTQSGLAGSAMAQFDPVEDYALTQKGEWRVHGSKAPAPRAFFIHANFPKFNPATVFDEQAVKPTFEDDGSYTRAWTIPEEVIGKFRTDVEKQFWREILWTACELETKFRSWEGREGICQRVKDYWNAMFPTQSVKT

Mnn5 (AfMnn5) = biological target: T2, Mnn5 (AfMnn5) (Aspergillus fumigatus, UniProt B0Y1T7); test: reverse-phase HPLC of products; type: biochemical; conditions: acceptor 1.5 mM; 10 mM GDP-Man, 0.5 mM MnCl2, pH 6.8, 30 °C, 16 h
T2 construct: gene AFUB_060800; N-terminal 6xHis, transmembrane residues 1-29 removed (30-492), expressed in E. coli SHuffle T7 Express, about 52 kDa
T2 sequence (B0Y1T7 30-492): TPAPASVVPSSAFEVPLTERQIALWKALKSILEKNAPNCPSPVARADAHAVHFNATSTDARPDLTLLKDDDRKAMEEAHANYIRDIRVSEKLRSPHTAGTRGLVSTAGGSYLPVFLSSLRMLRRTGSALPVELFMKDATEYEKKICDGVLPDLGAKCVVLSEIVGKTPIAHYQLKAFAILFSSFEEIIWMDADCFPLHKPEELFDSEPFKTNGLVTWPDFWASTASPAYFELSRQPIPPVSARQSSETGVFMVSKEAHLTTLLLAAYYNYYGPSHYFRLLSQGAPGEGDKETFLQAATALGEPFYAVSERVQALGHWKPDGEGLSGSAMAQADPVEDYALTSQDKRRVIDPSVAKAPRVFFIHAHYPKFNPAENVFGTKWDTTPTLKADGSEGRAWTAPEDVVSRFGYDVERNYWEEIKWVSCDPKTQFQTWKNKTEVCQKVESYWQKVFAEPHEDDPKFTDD

O=[N+]([O-])c1ccc(O[C@H]2O[C@H](CO)[C@@H](O)[C@H](O)[C@@H]2O)cc1 [p-nitrophenyl α-D-mannopyranoside]
reverse-phase HPLC of products (Mnn2 (AfMnn2)): fractions containing Mnn2 or Mnn5 revealed new products | reverse-phase HPLC of products (Mnn5 (AfMnn5)): fractions containing Mnn2 or Mnn5 revealed new products
